target: T1, full-length human PKCι (Homo sapiens, UniProt P41743); assay: PKCι IC50 IMAP fluorescence polarisation assay, full-length enzyme, 150 μM ATP; format: biochemical; details: read-out: IC50 in IMAP assay against full length PKCi at 150 μM ATP
T1 construct: Recombinant, full-length human PKCι expressed in Sf21 insect cells is also commercially available; purchased EMD Millipore; host or cells: Sf21 insect cells (baculovirus)
T1 sequence (P41743 1-596): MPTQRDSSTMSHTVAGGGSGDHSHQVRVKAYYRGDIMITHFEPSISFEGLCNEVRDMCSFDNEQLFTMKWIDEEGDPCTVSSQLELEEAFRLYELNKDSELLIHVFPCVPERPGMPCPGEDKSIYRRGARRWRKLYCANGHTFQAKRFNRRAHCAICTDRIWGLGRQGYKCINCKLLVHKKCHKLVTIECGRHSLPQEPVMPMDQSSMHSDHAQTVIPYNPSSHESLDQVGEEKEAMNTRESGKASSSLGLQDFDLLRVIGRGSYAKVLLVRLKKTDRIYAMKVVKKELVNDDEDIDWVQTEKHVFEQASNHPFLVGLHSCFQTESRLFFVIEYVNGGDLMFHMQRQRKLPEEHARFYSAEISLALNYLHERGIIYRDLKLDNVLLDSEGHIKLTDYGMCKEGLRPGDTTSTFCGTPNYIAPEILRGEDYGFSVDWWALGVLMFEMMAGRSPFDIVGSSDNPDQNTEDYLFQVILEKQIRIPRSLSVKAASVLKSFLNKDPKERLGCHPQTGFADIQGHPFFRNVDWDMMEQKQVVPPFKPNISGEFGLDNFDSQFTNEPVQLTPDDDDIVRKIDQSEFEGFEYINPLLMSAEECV
In short: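 IMAP fluorescence polarisation kinase assay: 15 pM baculovirus-expressed human PKCiota with 100 nM FAM-pseudosubstrate peptide and 150 μM ATP, 1 h at 25 °C. IMAP detection reagent then 2 h at 25 °C before FP measurement. Inhibition referenced to no-compound and no-enzyme controls for IC50 fitting.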

| IC50 | Compound |
| --- | --- |
| < 100 nM | CC1(C)CNCC[C@@H]1Nc1nc(-c2ccnc(Nc3ncccc3F)c2)nc2cncc(C3CCC3)c12 [Example 210, {5-Cyclobutyl-2-[2-(3-fluoro-pyridin-2-ylamino)-pyridin-4-yl]-pyrido[3,4-d]pyrimidin-4-yl}-((S)-3,3-dimethyl-piperidin-4-yl)-amine] |
| 100 to 1000 nM | CC1(C)CNCCC1Nc1nc(-c2ccnc(Nc3nc(C4CC4)cs3)c2)nc2cncc(C3CC3)c12 (centres unmarked) [Example 39, {5-Cyclopropyl-2-[2-(4-cyclopropyl-thiazol-2-ylamino)-pyridin-4-yl]-pyrido[3,4-d]pyrimidin-4-yl}-(3,3-dimethyl-piperidin-4-yl)-amine] |
| < 100 nM | C[C@@H]1CNCC[C@@H]1Nc1nc(-c2ccnc(Nc3nc4ccccn4n3)c2)nc2cncc(C3CCC3)c12 (racemic) [Example 276, {5-Cyclobutyl-2-[2-([1,2,4]triazolo[1,5-a]pyridin-2-ylamino)-pyridin-4-yl]-pyrido[3,4-d]pyrimidin-4-yl}-(rac-(3R,4S)-3-methyl-piperidin-4-yl)-amine] |
| < 100 nM | Fc1ccc(-c2cc3c(-c4nc(N5CCNCC5)c5c(C6CC6)cncc5n4)ccnc3[nH]2)c(F)n1 [Example 40, 5-Cyclopropyl-2-[2-(2,6-difluoro-pyridin-3-yl)-1H-pyrrolo[2,3-b]pyridin-4-yl]-4-piperazin-1-yl-pyrido[3,4-d]pyrimidine] |
| < 100 nM | CC1(C)CNCCC1Nc1nc(-c2ccnc(Nc3ncccc3F)c2)nc2cncc(C3CCC3)c12 (centres unmarked) [Example 70, {5-Cyclobutyl-2-[2-(3-fluoro-pyridin-2-ylamino)-pyridin-4-yl]-pyrido[3,4-d]pyrimidin-4-yl}-(3,3-dimethyl-piperidin-4-yl)-amine] |
| 1000 to 10000 nM | c1ccc2c(c1)oc1nccc(-c3nc(NC4CCNCC4)c4c(C5CC5)cncc4n3)c12 [Example 374, 2-(benzofuro[2,3-b]pyridin-4-yl)-5-cyclopropyl-N-(4-piperidyl)pyrido[3,4-d]pyrimidin-4-amine] |
| < 100 nM | CC1(C)CNCC[C@@H]1Nc1nc(-c2ccnc(Nc3nc(F)c(F)cc3F)c2)nc2cncc(C3CC3)c12 [Example 278, {5-Cyclopropyl-2-[2-(3,5,6-trifluoro-pyridin-2-ylamino)-pyridin-4-yl]-pyrido[3,4-d]pyrimidin-4-yl}-((S)-3,3-dimethyl-piperidin-4-yl)-amine] |
| < 100 nM | O=C(NC1CCCCC1)c1cc2c(-c3nc(N4CCNCC4)c4c(C5CC5)cncc4n3)ccnc2[nH]1 [Example 62, 4-(5-Cyclopropyl-4-piperazin-1-yl-pyrido[3,4-d]pyrimidin-2-yl)-1H-pyrrolo[2,3-b]pyridine-2-carboxylic acid cyclohexylamide] |
| < 100 nM | CC1(C)CNCC[C@@H]1Nc1nc(-c2ccnc(Nc3cc(F)ccn3)c2)nc2cncc(C3CCC3)c12 [Example 382, {5-Cyclobutyl-2-[2-(4-fluoro-pyridin-2-ylamino)-pyridin-4-yl]-pyrido[3,4-d]pyrimidin-4-yl}-((S)-3,3-dimethyl-piperidin-4-yl)-amine] |
| 100 to 1000 nM | CC1(C)CNCC[C@@H]1Nc1nc(-c2cccc(Nc3nc(F)ccc3F)c2)nc2cncc(C3CCC3)c12 [Example 315, {5-Cyclobutyl-2-[3-(3,6-difluoro-pyridin-2-ylamino)-phenyl]-pyrido[3,4-d]pyrimidin-4-yl}-((S)-3,3-dimethyl-piperidin-4-yl)-amine] |
| < 100 nM | OC1(c2cc3c(-c4nc(N5CCNCC5)c5c(C6CCC6)cncc5n4)ccnc3[nH]2)CCSC1 (centres unmarked) [Example 13, 3-[4-(5-Cyclobutyl-4-piperazin-1-yl-pyrido[3,4-d]pyrimidin-2-yl)-1H-pyrrolo[2,3-b]pyridin-2-yl]-tetrahydro-thiophen-3-ol] |
| < 100 nM | Fc1ccc(F)c(Nc2cc(-c3nc(NC45CCNCC4C5)c4c(C5CCC5)cncc4n3)ccn2)n1 (centres unmarked) [Example 209, (3-Aza-bicyclo[4.1.0]hept-6-yl)-{5-cyclobutyl-2-[2-(3,6-difluoro-pyridin-2-ylamino)-pyridin-4-yl]-pyrido[3,4-d]pyrimidin-4-yl}-amine] |
| 100 to 1000 nM | CC1(C)CNCC[C@H]1Nc1nc(-c2ccnc(Nc3nc(F)ccc3F)c2)nc2cncc(C3CC3)c12 [Example 157, {5-Cyclopropyl-2-[2-(3,6-difluoro-pyridin-2-ylamino)-pyridin-4-yl]-pyrido[3,4-d]pyrimidin-4-yl}-((R)-3,3-dimethyl-piperidin-4-yl)-amine] |
| < 100 nM | CC1(C)CNCC[C@@H]1Nc1nc(-c2ccnc3[nH]c(-c4cccnc4)cc23)nc2cncc(C3CCC3)c12 [Example 367, [5-Cyclobutyl-2-(2-pyridin-3-yl-1H-pyrrolo[2,3-b]pyridin-4-yl)-pyrido[3,4-d]pyrimidin-4-yl]-((S)-3,3-dimethyl-piperidin-4-yl)-amine] |
| < 100 nM | CC1(C)CNCC[C@@H]1Nc1nc(-c2ccnc3[nH]c(C(=O)N4CCC4)cc23)nc2cncc(C3CC3)c12 [Example 366, Azetidin-1-yl-[4-[5-cyclopropyl-4-[[(4S)-3,3-dimethyl-4-piperidyl]amino]pyrido [3,4-d]pyrimidin-2-yl]-1H-pyrrolo[2,3-b]pyridin-2-yl]methanone] |
| < 100 nM | Clc1ccc(Cl)c(-c2cc3c(-c4nc(N5CCC6NCCCC65)c5c(C6CC6)cncc5n4)ccnc3[nH]2)c1 (centres unmarked) [Example 142, 5-Cyclopropyl-2-[2-(2,5-dichloro-phenyl)-1H-pyrrolo[2,3-b]pyridin-4-yl]-4-(octahydro-pyrrolo [3,2-b]pyridin-1-yl)-pyrido[3,4-d]pyrimidine] |
| < 100 nM | O[C@@H]1CNCC[C@H]1Nc1nc(-c2ccnc(Nc3ccc4ccccc4n3)c2)nc2cncc(C3CCC3)c12 (racemic) [Example 273, rac-(3R,4R)-4-{5-Cyclobutyl-2-[2-(quinolin-2-ylamino)-pyridin-4-yl]-pyrido[3,4-d]pyrimidin-4-ylamino}-piperidin-3-ol] |
| < 100 nM | O[C@@H]1CNCC[C@H]1Nc1nc(-c2ccnc3[nH]c4ccccc4c23)nc2cncc(C(F)(F)F)c12 (racemic) [Example 350, rac-(3R,4R)-4-[2-(9H-Pyrido[2,3-b]indol-4-yl)-5-trifluoromethyl-pyrido[3,4-d]pyrimidin-4-ylamino]-piperidin-3-ol] |
| < 100 nM | Clc1ccc(-c2cc3c(-c4nc(N5CCNCC5)c5c(C6CC6)cncc5n4)ccnc3[nH]2)c(Cl)c1 [Example 18, 5-Cyclopropyl-2-[2-(2,4-dichloro-phenyl)-1H-pyrrolo[2,3-b]pyridin-4-yl]-4-piperazin-1-yl-pyrido[3,4-d] pyrimidine] |
| < 100 nM | CC1(C)CC(Nc2nc(-c3ccnc(Nc4nc(F)ccc4F)c3)nc3cncc(C4CCC4)c23)CCN1 (centres unmarked) [Example 138, {5-Cyclobutyl-2-[2-(3,6-difluoro-pyridin-2-ylamino)-pyridin-4-yl]-pyrido[3,4-d]pyrimidin-4-yl}-(2,2-dimethyl-piperidin-4-yl)-amine] |
| < 100 nM | COc1cncc2nc(-c3ccnc(Nc4nc(F)ccc4F)c3)nc(N[C@H]3CCNCC3(C)C)c12 [Example 268, 2-[2-[(3,6-difluoro-2-pyridyl)amino]-4-pyridyl]-N-[(4S)-3,3-dimethyl-4-piperidyl]-5-methoxy-pyrido[3,4-d]pyrimidin-4-amine] |
| 100 to 1000 nM | O[C@H]1CNCC[C@H]1Nc1nc(-c2ccnc(Nc3ncccc3F)c2)nc2cncc(C3CC3)c12 (racemic) [Example 305, rac-(3S,4R)-4-{5-Cyclopropyl-2-[2-(3-fluoro-pyridin-2-ylamino)-pyridin-4-yl]-pyrido[3,4-d]pyrimidin-4-ylamino}-piperidin-3-ol] |
| < 100 nM | CC1(C)CNCC[C@@H]1Nc1nc(-c2ccnc(Nc3nc(F)cc(F)c3F)c2)nc2cncc(C3CC3)c12 [Example 325, 5-Cyclopropyl-N-[(4S)-3,3-dimethyl-4-piperidyl]-2-[2-[(3,4,6-trifluoro-2-pyridyl)amino]-4-pyridyl]pyrido[3,4-d]pyrimidin-4-amine] |
| < 100 nM | CC1(C)CNCCC1Nc1nc(-c2ccnc(Nc3c(F)cccc3F)c2)nc2cncc(C3CCC3)c12 (centres unmarked) [Example 93, {5-Cyclobutyl-2-[2-(2,6-difluoro-phenylamino)-pyridin-4-yl]-pyrido[3,4-d]pyrimidin-4-yl}-(3,3-dimethyl-piperidin-4-yl)-amine] |
| < 100 nM | FC(F)(F)c1cc2c(-c3nc(N4CCCC5NCCCC54)c4c(C5CC5)cncc4n3)ccnc2[nH]1 (centres unmarked) [Example 64, 5-Cyclopropyl-4-(octahydro-[1,5]naphthyridin-1-yl)-2-(2-trifluoromethyl-1H-pyrrolo[2,3-b]pyridin-4-yl)-pyrido[3,4-d]pyrimidine] |

| Compound | IC50 |
| --- | --- |
| CN(c1nc(-c2ccnc3[nH]c4ccccc4c23)nc2cncc(C3CCC3)c12)[C@@H]1CCNC[C@@]1(C)O (racemic) [Example 77, (±)-(3,4-trans)-4-{[5-Cyclobutyl-2-(9H-pyrido[2,3-b]indol-4-yl)-pyrido[3,4-d]pyrimidin-4-yl]-methyl-amino}-3-methyl-piperidin-3-ol] | < 100 nM |

— patent US10414763B2 (CANCER RESEARCH TECHNOLOGY LIMITED, priority 2014, dated 2019)
